How the values were obtained:
[1] = system: MIA PaCa-2; test: Antiproliferative activity against human MIAPaCa2 cells after 72 hrs by MTT assay; type: functional, cell-based; details: MIA PaCa-2, 72 h
[2] = system: A549; test: Antiproliferative activity against human A549 cells after 72 hrs by MTT assay; type: functional, cell-based; details: A549, 72 h
[3] = system: BJ; test: Cytotoxicity against human BJ cells assessed as reduction in cell viability after 72 hrs by MTT assay; type: cell-based
[4] = Selectivity index, ratio of IC50 for human BJ cells to IC50 for human MIAPaCa2 cells; type: toxicity; details: BJ cells versus MIAPaCa2 cells, read-out: Ratio IC50
[5] = Selectivity index, ratio of IC50 for human BJ cells to IC50 for human A549 cells; type: toxicity; details: BJ cells versus A549 cells, read-out: Ratio IC50

CC(=O)Oc1cc2c(c(C)c1OC(C)=O)C(=O)C=C1[C@@]2(C)CC[C@@]2(C)[C@@H]3C[C@](C)(C(=O)O)CC[C@]3(C)CC[C@]12C
IC50 [1]: > 5 µM | IC50 [2]: > 15 µM

CC1=C(O)C(=O)C=C2C1=CC=C1[C@@]2(C)CC[C@@]2(C)[C@@H]3C[C@](C)(NC(=O)NCc4ccc(F)cc4)CC[C@]3(C)CC[C@]12C
IC50 [1]: 0.56 µM | IC50 [2]: 4.34 µM

CCCCNC(=O)N[C@]1(C)CC[C@]2(C)CC[C@]3(C)C4=CC=C5C(=CC(=O)C(O)=C5C)[C@]4(C)CC[C@@]3(C)[C@@H]2C1
IC50 [1]: 0.31 µM | IC50 [2]: 1.44 µM | IC50 [3]: 2.12 µM | selectivity ratio [4]: 6.94 | selectivity ratio [5]: 1.48

CNC(=O)N[C@]1(C)CC[C@]2(C)CC[C@]3(C)C4=CC(=O)c5c(cc(OC)c(OC)c5C)[C@]4(C)CC[C@@]3(C)[C@@H]2C1
IC50 [1]: > 5 µM | IC50 [2]: > 15 µM

CNC(=O)N[C@]1(C)CC[C@]2(C)CC[C@]3(C)C4=CC(=O)c5c(cc(O)c(O)c5C)[C@]4(C)CC[C@@]3(C)[C@@H]2C1
IC50 [1]: > 5 µM | IC50 [2]: > 15 µM

CC(=O)Oc1cc2c(c(C)c1OC(C)=O)CC=C1[C@@]2(C)CC[C@@]2(C)[C@@H]3C[C@](C)(N=C=O)CC[C@]3(C)CC[C@]12C
IC50 [1]: 1.41 µM | IC50 [2]: 2.89 µM

CC(=O)Oc1cc2c(c(C)c1OC(C)=O)C(=O)C=C1[C@@]2(C)CC[C@@]2(C)[C@@H]3C[C@](C)(N=C=O)CC[C@]3(C)CC[C@]12C
IC50 [1]: > 5 µM | IC50 [2]: > 15 µM

CC1=C(O)C(=O)C=C2C1=CC=C1[C@@]2(C)CC[C@@]2(C)[C@@H]3C[C@](C)(NC(N)=O)CC[C@]3(C)CC[C@]12C
IC50 [1]: 0.63 µM | IC50 [2]: 2.48 µM

CNC(=O)N[C@]1(C)CC[C@]2(C)CC[C@]3(C)C4=CC=C5C(=CC(=O)C(O)=C5C)[C@]4(C)CC[C@@]3(C)[C@@H]2C1
IC50 [1]: 0.41 µM | IC50 [2]: 1.45 µM | IC50 [3]: 1.96 µM | selectivity ratio [4]: 4.72 | selectivity ratio [5]: 1.36

Cc1c(O)c(O)cc2c1C(=O)C=C1[C@@]2(C)CC[C@@]2(C)[C@@H]3C[C@](C)(NC(N)=O)CC[C@]3(C)CC[C@]12C
IC50 [1]: > 5 µM | IC50 [2]: > 15 µM

Reference: ChEMBL document CHEMBL4190255, “Novel celastrol derivatives with improved selectivity and enhanced antitumour activity: Design, synthesis and biological evaluation” (Eur J Med Chem, 2017)
